{"source": "patent US10450322B2", "about": "“Low molecular weight derivatives of carboxamide halogenated porphyrins, namely chlorins and bacteriochlorins, and their applications thereof” (LUZITIN, S.A., priority 2015, dated 2019)", "origin": "cited, not measured here", "conditions": "at physiological pH; cited from earlier work", "data": [{"smiles": "Oc1cccc(-c2c3nc(c(-c4cccc(O)c4)c4ccc([nH]4)c(-c4cccc(O)c4)c4nc(c(-c5cccc(O)c5)c5ccc2[nH]5)CC4)C=C3)c1", "note": "[temoporfin, 5,10,15,20-tetra (m-hydroxyphenyl)chlorin]", "values": [{"measurement": "log POW", "result": 5.5}]}]}
